Test results from patent US10258634B2, “Ciclesonide for the treatment of airway disease in horses” (Boehringer Ingelheim Vetmedica GmbH, priority 2012, dated 2019).

Columns and labels:
[1] = system: RAO horses; assay: Segmented neutrophil and lymphocyte counts in the 1st and 2nd ciclesonide studies; format: in vivo
Procedure: The commercially available […]® is used in the study.
The segmented neutrophil counts and the lymphocyte counts are determined in the studies above: ciclesonide treatment versus dexamethasone treatment.
Concentration of segmented neutrophils and lymphocytes on day (D): D0, D14 and D21 in the treatment groups of dexamethasone and different doses of ciclesonide (n=8) (mean (SEM)

[2] = system: RAO horses; assay: 3rd ciclesonide study: moldy hay challenge, lung function variables; format: in vivo; conditions: ciclesonide 2700 μg twice daily / 3712.5 μg once daily morning / 3712.5 μg once daily evening, inhalation, nozzle B; after 14 days
From the text: The horses are challenged by exposure to moldy hay to throughout the whole study.

[3] = Plasma level of ciclesonide and C21-C21-desisobutyrylciclesonide (HPLC-MS/MS), 2nd ciclesonide study; conditions: for concentration at 0 min / concentration at 10 min / concentration at 30 min / concentration at 1 h / concentration at 2 h / concentration at 4 h: horse, plasma, inhaled
[4] = 1st ciclesonide study, after administration of ciclesonide 450/900/1800 μg twice daily
[5] = 2nd ciclesonide study, after administration of ciclesonide 1687.5/2700 μg twice daily
[6] = 1687.5 μg/horse, Ciclesonide concentration (plasma), ciclesonide 1687.5 μg (nozzle B) twice daily per inhalation, day 1
[7] = 1687.5 μg/horse, Ciclesonide concentration (plasma), ciclesonide 1687.5 μg (nozzle B) twice daily per inhalation, day 11
[8] = 2700 μg/horse, Ciclesonide concentration (plasma), ciclesonide 2700 μg A (nozzle A) twice daily per inhalation, day 1
[9] = 2700 μg/horse, Ciclesonide concentration (plasma), ciclesonide 2700 μg A (nozzle A) twice daily per inhalation, day 11
[10] = 2700 μg/horse, Ciclesonide concentration (plasma), ciclesonide 2700 μg B (nozzle B) twice daily per inhalation, day 1
[11] = 2700 μg/horse, Ciclesonide concentration (plasma), ciclesonide 2700 μg B (nozzle B) twice daily per inhalation, day 11

Structure (SMILES): CC(C)C(=O)OCC(=O)[C@@]12O[C@H](C3CCCCC3)O[C@@H]1C[C@H]1[C@@H]3CCC4=CC(=O)C=C[C@]4(C)[C@H]3[C@@H](O)C[C@@]12C [ciclesonide, (11β,16α)-16,17-[[(R)-Cyclohexylmethylene]bis(oxy)]-11-hydroxy-21-(2-methyl-1-oxopropoxy)pregna-1,4-diene-3,20-dione]
- counts of lymphocytes [1, 4]: no change
- counts of segmented neutrophils [1, 4]: no or minor increase
- counts of lymphocytes [1, 5]: no change
- counts of segmented neutrophils [1, 5]: no or minor increase
- alteration in the immune system measured by neutrophilia and lymphopenia ([1]; treatment for two weeks with different dose levels of ciclesonide): no alteration is observed
- lung function variables (ΔPL, RL, EL) compared to pretreatment values and to placebo group [2]: significantly reduced
- Ciclesonide concentration (plasma) ([3]; ciclesonide 1687.5 μg (nozzle B) twice daily per inhalation, day 11, 2 h): <0.500 nmol/L
- Ciclesonide concentration (plasma) ([3]; ciclesonide 1687.5 μg (nozzle B) twice daily per inhalation, day 11, 4 h): <0.500 nmol/L
- concentration at 0 min [3, 6]: < 0.5 nM
- concentration at 10 min [3, 6]: 0.87 nM
- concentration at 30 min [3, 6]: < 0.5 nM
- concentration at 1 h ([3]; 1687.5 μg/horse, Ciclesonide concentration (plasma), ciclesonide 1687.5 μg (nozzle B) twice daily per inhalation, day 1, 1 h): < 0.5 nM
- concentration at 2 h ([3]; 1687.5 μg/horse, Ciclesonide concentration (plasma), ciclesonide 1687.5 μg (nozzle B) twice daily per inhalation, day 1, 2 h): < 0.5 nM
- concentration at 4 h ([3]; 1687.5 μg/horse, Ciclesonide concentration (plasma), ciclesonide 1687.5 μg (nozzle B) twice daily per inhalation, day 1, 4 h): < 0.5 nM
- concentration at 0 min [3, 7]: < 0.5 nM
- concentration at 10 min [3, 7]: 0.97 nM
- concentration at 30 min [3, 7]: < 0.5 nM
- concentration at 1 h ([3]; 1687.5 μg/horse, Ciclesonide concentration (plasma), ciclesonide 1687.5 μg (nozzle B) twice daily per inhalation, day 11, 1 h): < 0.5 nM
- concentration at 0 min [3, 8]: < 0.5 nM
- concentration at 10 min [3, 8]: 1.19 nM
- concentration at 30 min [3, 8]: 0.51 nM
- concentration at 1 h ([3]; 2700 μg/horse, Ciclesonide concentration (plasma), ciclesonide 2700 μg A (nozzle A) twice daily per inhalation, day 1, 1 h): < 0.5 nM
- concentration at 2 h ([3]; 2700 μg/horse, Ciclesonide concentration (plasma), ciclesonide 2700 μg A (nozzle A) twice daily per inhalation, day 1, 2 h): < 0.5 nM
- concentration at 4 h ([3]; 2700 μg/horse, Ciclesonide concentration (plasma), ciclesonide 2700 μg A (nozzle A) twice daily per inhalation, day 1, 4 h): < 0.5 nM
- concentration at 0 min [3, 9]: < 0.5 nM
- concentration at 10 min [3, 9]: 1.02 nM
- concentration at 30 min [3, 9]: 0.63 nM
- concentration at 1 h ([3]; 2700 μg/horse, Ciclesonide concentration (plasma), ciclesonide 2700 μg A (nozzle A) twice daily per inhalation, day 11, 1 h): < 0.5 nM
- concentration at 2 h ([3]; 2700 μg/horse, Ciclesonide concentration (plasma), ciclesonide 2700 μg A (nozzle A) twice daily per inhalation, day 11, 2 h): < 0.5 nM
- concentration at 4 h ([3]; 2700 μg/horse, Ciclesonide concentration (plasma), ciclesonide 2700 μg A (nozzle A) twice daily per inhalation, day 11, 4 h): < 0.5 nM
- concentration at 0 min [3, 10]: < 0.5 nM
- concentration at 10 min [3, 10]: 1.16 nM
- concentration at 30 min [3, 10]: 0.72 nM
- concentration at 1 h ([3]; 2700 μg/horse, Ciclesonide concentration (plasma), ciclesonide 2700 μg B (nozzle B) twice daily per inhalation, day 1, 1 h): < 0.5 nM
- concentration at 2 h ([3]; 2700 μg/horse, Ciclesonide concentration (plasma), ciclesonide 2700 μg B (nozzle B) twice daily per inhalation, day 1, 2 h): < 0.5 nM
- concentration at 4 h ([3]; 2700 μg/horse, Ciclesonide concentration (plasma), ciclesonide 2700 μg B (nozzle B) twice daily per inhalation, day 1, 4 h): < 0.5 nM
- concentration at 0 min [3, 11]: < 0.5 nM
- concentration at 10 min [3, 11]: 1.38 nM
- concentration at 30 min [3, 11]: 0.63 nM
- concentration at 1 h ([3]; 2700 μg/horse, Ciclesonide concentration (plasma), ciclesonide 2700 μg B (nozzle B) twice daily per inhalation, day 11, 1 h): < 0.5 nM
- concentration at 2 h ([3]; 2700 μg/horse, Ciclesonide concentration (plasma), ciclesonide 2700 μg B (nozzle B) twice daily per inhalation, day 11, 2 h): < 0.5 nM
- concentration at 4 h ([3]; 2700 μg/horse, Ciclesonide concentration (plasma), ciclesonide 2700 μg B (nozzle B) twice daily per inhalation, day 11, 4 h): < 0.5 nM
- concentration at 1 h ([3]; concentration of ciclesonide in plasma, samples taken 1 h after drug administration, below lower limit of quantification): < 0.5 nM
- conversion of the prodrug into the effective molecule C21-C21-desisobutyrylciclesonide ([3]; in horses (example 5)): can be converted
